# Read-outs that look alike come from different tables or passages of the source.
# How the values were obtained:
# [1] = system: cortical neurons; assay: neuroprotection in neuronal cultures, bi-laminar approach, OGD insult; format: cell-based; conditions: OGD for 20 min
# Experimental: (§1) Top: Representative images (40× magnification) of 14 DIV cortical neurons in control conditions (FIG. 2A) or subjected to insult with 10 μM L-glutamate for 24 h (FIG. 2B). […] Bottom: Representative images of cortical neurons in control conditions (FIG. 2D) or subjected to insult with OGD for 20 min (FIG. 2E). […] Quantification performed 24 h after treatments in cultures stained for MAP-2 (green) and DAPI (blue). Surviving neurons were estimated by blind counting of 10 fields/coverslips, averages of triplicate determinations±SD (ANOVA followed by Dunnet's posthoc test, *p<0.05, **<0.01, p***<0.001, compared to control, #p<0.05, ###p<0.001, compared to insult).
# [2] = system: cortical neurons; assay: neuroprotection in neuronal cultures, bi-laminar approach, L-glutamate insult; format: cell-based; conditions: 10 μM L-glutamate for 24 h
# Experimental: as §1
# [3] = biological target: T1, EAAT2 (Homo sapiens, UniProt P43004); assay: glutamate uptake mediated by EAAT2-expressing COS-7 cells; conditions: for EAAT2 Efficacy: bottom number of the cell
# T1 sequence (P43004 whole entry, the tested form may be a part): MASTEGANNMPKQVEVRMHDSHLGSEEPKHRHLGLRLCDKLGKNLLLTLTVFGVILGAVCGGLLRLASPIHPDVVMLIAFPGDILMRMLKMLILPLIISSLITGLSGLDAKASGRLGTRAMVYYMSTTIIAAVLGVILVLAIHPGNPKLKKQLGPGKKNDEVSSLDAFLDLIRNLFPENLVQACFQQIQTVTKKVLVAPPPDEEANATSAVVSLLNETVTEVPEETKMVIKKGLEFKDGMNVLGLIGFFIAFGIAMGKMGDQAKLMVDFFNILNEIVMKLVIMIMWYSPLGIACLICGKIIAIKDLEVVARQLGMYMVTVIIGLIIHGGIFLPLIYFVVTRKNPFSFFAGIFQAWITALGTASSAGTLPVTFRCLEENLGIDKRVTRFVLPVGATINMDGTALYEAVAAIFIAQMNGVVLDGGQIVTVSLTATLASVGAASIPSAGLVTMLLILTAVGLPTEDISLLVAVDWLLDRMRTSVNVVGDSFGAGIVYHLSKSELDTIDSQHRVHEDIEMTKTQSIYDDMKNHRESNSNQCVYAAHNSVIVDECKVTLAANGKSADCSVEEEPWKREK
# [4] = biological target: T1, EAAT2; assay: kinetic analysis of L-glutamate uptake in EAAT2-transfected COS-7 cells; format: cell-based; set-up: expressed in transfected cells; host or cells: COS-7; conditions: compound 10 nM, different concentrations of glutamate
# [5] = pilocarpine in vivo model of epilepsy; conditions: osmotic pump 48 hours, final dose 4 mg/Kg, after pilocarpine 380 mg/Kg; p=0.0189
# [6] = biological target: T2, EAAT3 (Homo sapiens, UniProt P43005); assay: glutamate uptake mediated by EAAT3-expressing COS-7 cells; format: cell-based; conditions: for EAAT3 EC50 (nM): top number of the cell
# T2 construct: expressed in transfected cells; host or cells: COS-7
# T2 sequence (P43005 1-524): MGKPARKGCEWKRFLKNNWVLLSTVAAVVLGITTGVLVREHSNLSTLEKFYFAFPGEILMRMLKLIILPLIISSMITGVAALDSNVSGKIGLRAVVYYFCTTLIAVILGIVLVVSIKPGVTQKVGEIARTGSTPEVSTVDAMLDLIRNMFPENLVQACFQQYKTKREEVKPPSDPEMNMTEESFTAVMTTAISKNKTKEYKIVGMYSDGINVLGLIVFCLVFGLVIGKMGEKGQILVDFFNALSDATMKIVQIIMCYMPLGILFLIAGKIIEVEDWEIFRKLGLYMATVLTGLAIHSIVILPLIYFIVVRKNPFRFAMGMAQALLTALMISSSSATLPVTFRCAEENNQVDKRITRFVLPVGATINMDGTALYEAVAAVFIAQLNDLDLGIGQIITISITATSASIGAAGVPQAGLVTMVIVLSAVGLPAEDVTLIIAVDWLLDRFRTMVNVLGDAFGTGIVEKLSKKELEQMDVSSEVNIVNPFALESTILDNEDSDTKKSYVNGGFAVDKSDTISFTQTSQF
# [7] = biological target: T3, EAAT1 (Homo sapiens, UniProt P43003); assay: glutamate uptake mediated by EAAT1-expressing COS-7 cells; format: cell-based; conditions: for EAAT1 Efficacy: bottom number of the cell
# T3 construct: expressed in transfected cells; host or cells: COS-7
# T3 sequence (P43003 whole entry, the tested form may be a part): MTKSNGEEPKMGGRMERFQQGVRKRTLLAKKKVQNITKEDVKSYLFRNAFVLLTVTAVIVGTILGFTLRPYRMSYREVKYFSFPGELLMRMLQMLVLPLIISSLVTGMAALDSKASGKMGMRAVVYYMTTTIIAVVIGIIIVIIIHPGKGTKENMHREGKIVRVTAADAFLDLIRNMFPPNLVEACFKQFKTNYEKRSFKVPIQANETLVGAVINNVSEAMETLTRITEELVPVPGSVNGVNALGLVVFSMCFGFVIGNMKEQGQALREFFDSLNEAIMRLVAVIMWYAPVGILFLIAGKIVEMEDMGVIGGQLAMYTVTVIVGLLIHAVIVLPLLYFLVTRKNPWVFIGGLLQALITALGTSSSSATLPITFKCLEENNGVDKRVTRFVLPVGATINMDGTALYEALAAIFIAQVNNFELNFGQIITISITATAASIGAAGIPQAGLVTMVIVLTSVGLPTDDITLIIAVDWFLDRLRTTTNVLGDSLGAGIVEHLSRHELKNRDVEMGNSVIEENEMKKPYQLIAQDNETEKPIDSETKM
# [8] = SNL (spinal nerve ligation) model; conditions: p<0.01 compared to vehicle
# [9] = system: glia cells; conditions: for Km / Vmax: Glia
# [10] = system: neuron-glia cultures; assay: neuroprotection in mixed neuron-glia cultures; format: cell-based, rat
# Source text: Immunostaining against neuronal marker MAP-2 (green), glial maker GFAP (red), and nuclear marker DAPI (blue). Surviving neurons were estimated by blind counting of 10 fields/coverslips, averages of triplicate determinations±SD (ANOVA followed by Dunnet's posthoc test, ***p<0.001, compared to control, ###p<0.001, compared to insult). FIGS. 7A-7E show the in vitro neuroprotective properties of second and third generation compounds after glutamate and oxygen glucose deprivation insults in mixed neuron/glia cultures. […] Immunostaining against neuronal marker MAP-2 (green), glial maker GFAP (red), and nuclear marker DAPI (blue). Images taken with 30× magnification with a confocal microscope.
smiles,measurement,setting,value
"NC(CCCP(=O)(O)O)C(=O)O (racemic) [APV, (DL)-2-amino-5-phosphonovaleric acid, reference compound]",cell death / surviving neurons,[1]; compound 100 μM,attenuated cell death
same,cell death / surviving neurons,[2]; compound 100 μM,attenuate cell death
"CN1CCN(C(c2cccnc2)c2nnnn2CCc2ccccc2)CC1 (centres unmarked) [DA-023, 1-methyl-4-((1-phenethyl-1H-tetrazol-5-yl)(pyridin-3-yl)methyl)piperazine]",cell death / surviving neurons,[1]; compound 100 nM,attenuated cell death
same,cell death / surviving neurons,[2]; compound 10 nM,attenuate cell death
same,potency on transport augmentation (dose response curve),[3]; EAAT2-expressing COS-7 cells,nM range
same,efficacy on transport augmentation,"[3]; EAAT2-expressing COS-7 cells, dose response curve",< 150%
same,effect on KM (affinity for the substrate),[4],no effect on KM
same,effect on Vmax (in words),[4],increase in Vmax
same,neuronal death (FJC+ cell numbers) in the hilus,[5],significant reduction in the neuronal death
"COc1ccc(C(c2nnnn2CCc2ccccc2)N2CCN(C3CCCCC3)CC2)cc1OC (centres unmarked) [DA-050, 1-cyclohexyl-4-((3,4-dimethoxyphenyl)(1-phenethyl-1H-tetrazol-5-yl)methyl)piperazine]",EAAT3 EC50 (nM),[6],No Effect
same,EC50,[3],0.5 ± 0.56 nM
same,EAAT2 Efficacy,[3],261.50 ± 40.30%
same,EAAT1 Efficacy,[7],150.00 ± 21.21%
same,EC50,[7]; top number of the cell,46 ± 36.8 nM
"CN1CCN(C(c2ccncc2)c2nnnn2CCc2ccccc2)CC1 (centres unmarked) [DA-058, 1-methyl-4-((1-phenethyl-1H-tetrazol-5-yl)(pyridin-4-yl)methyl)piperazine]",EAAT3 EC50 (nM),[6],No Effect
same,EC50,[3],0.4 ± 0.42 nM
same,EAAT2 Efficacy,[3],200.50 ± 58.60%
same,EAAT1 Efficacy,[7],186.0 ± 41.01%
same,EC50,[7]; top number of the cell,2.24 ± 1.07 nM
COc1ccc2[nH]c(=O)c(C(c3nnnn3CCc3ccccc3)N3CCN(C4CCCCC4)CC3)cc2c1 (centres unmarked) [GT949],cell death / surviving neurons,[2]; compound 10 nM,attenuate cell death
"NCC1(CC(=O)O)CCCCC1 [Gabapentin, reference compound]",analgesic response,[8]; 200 mg/kg,analgesic response
"CN1CCN(C(C(=O)NCCc2ccc(F)cc2)c2cccnc2)CC1 (centres unmarked) [NA-005, N-(4-fluorophenethyl)-2-(4-methylpiperazin-1-yl)-2-(pyridin-3-yl)acetamide]",EAAT1 Efficacy,[7],189 ± 9.89%
"CN1CCN(C(C(=O)NCCc2ccc(F)cc2)c2ccc(C#N)cc2)CC1 (centres unmarked) [NA-014, 2-(4-cyanophenyl)-N-(4-fluorophenethyl)-2-(4-methylpiperazin-1-yl)acetamide]",analgesic response,[8]; 10 mg/kg,analgesic response
same,EAAT3 EC50 (nM),[6],No Effect
same,EAAT1 EC50 (nM),[7]; top number of the cell,No Effect
same,Km,[9]; NA-014 100 nM,52.5 ± 5.82 µM
same,Vmax,[9]; NA-014 100 nM,42.35 ± 1.44 pmol/well/min
same,Km,[9]; NA-014 500 nM,49.8 ± 8.3 µM
same,Vmax,[9]; NA-014 500 nM,72.76 ± 3.67 pmol/well/min
same,KM versus vehicle (in words),[9]; cultured glia cells pre-incubated with 100 nM and 500 nM,not statistically different
same,neuronal survival,"[10]; 100 μM L-glutamate for 24 h, co-treatment with 100 nM compound",neuroprotective effect
same,neuronal survival with co-application of EAAT inhibitor TBOA,"[10]; L-glutamate insult, compound plus TBOA",abolished by co-application of EAAT inhibitor TBOA
"CN1CCN(C(c2ccc(F)nc2)c2nnnn2CCc2ccccc2)CC1 (centres unmarked) [VY-3-285, 1-((6-fluoropyridin-3-yl)(1-phenethyl-1H-tetrazol-5-yl)methyl)-4-methylpiperazine]",EAAT1 Efficacy,[7],2.75 ± 3.18 222 ± 55.72%
"CN1CCN(C(c2ccc(O)nc2)c2nnnn2CCc2ccccc2)CC1 (centres unmarked) [VY-3-286, 5-((4-methylpiperazin-1-yl)(1-phenethyl-1H-tetrazol-5-yl)methyl)pyridin-2-ol]",EAAT3 Efficacy,[6]; bottom number of the cell,130.50 ± 2.12%
same,EAAT1 Efficacy,[7],160.25 ± 27.22%

# — patent publication US20220267308A1, “Modulators of Excitatory Amino Acid Transporters and Methods Using Same” (The Wistar Institute of Anatomy and Biology, priority 2019, published 2022)
